Source: patent US20170016875A1, “ANISOTROPIC MUSCULAR TISSUE DEVICES WITH INTEGRATED ELECTRICAL FORCE READOUTS” (President and Fellows of Harvard College, priority 2014, published 2017)

Tested on: neonatal rat ventricular myocytes (NRVM)
Experiment: spontaneous beating of NRVM muscle tissue layer on cantilever device, resistance readout
Type: cell-based
Conditions: after addition of 10 μM isoproterenol; NRVM muscle tissue layer in incubator, resistance versus time (FIG. 12B)
Procedure: After placement of the wells, neonatal rat ventricular myocytes (NRVM) were seeded at a concentration of 0.3 Mio cells per ml medium, and the contraction of the resulting muscle tissue layers was tested on day 4-5 after seeding. Prior to testing, the cantilevers were released by lowering the sample temperature to room temperature to dissolve the […] sacrificial layer, meaning that the flexible substrate cantilevers were released from the underlying rigid glass substrate after development and growth of the tissue.

SMILES: CC(C)NCC(O)c1ccc(O)c(O)c1 (stereo not shown) [isoproterenol]
- spontaneous beating frequency of the cells: significantly increased
